The IC50 is the concentration at which inhibition is half-maximal. As a reminder, the MIC is the lowest concentration found to suppress growth. A high value points to a less susceptible organism.

Where two headings read alike, the source gives them in different places. Where no end group is shown, it is not given here.

The target in one data set is T1, DRB1*0101 (Homo sapiens, UniProt P01903+P01911, A100R/D57E/F55L/F60I/F76Y/I96L/L162R/M171V/P40L/Q125E/R42F/V115G/Y59C).
T1 construct: purchased Benaroya Research Institute (Seattle, Wash.)
Briefly: MHC II competition binding assay. The protocol: (§1) MHC Binding Assays. MHC II competition binding assays were performed using a 384-well high throughput assay as previously described (Salvat, et al. (2014) supra). Binding assays were performed for the eight alleles: DRB1*0101, 0301, 0401, 0701, 0801, 1101, 1301, and 1501. Briefly, 100 nM biotinylated control peptides composed of known peptide antigens for each MHC II allele were incubated in polypropylene 384-well plates with 50 nM purified recombinant MHC II protein and serial dilutions of LST or variant peptide fragments (100 μM to 10 nM). Peptide-MHC II complexes were captured from equilibrated solutions using the conformation specific anti-HLA-DR antibody L243 coated on high binding ELISA plates. Bound control peptide was quantified using the DELFIA streptavidin-Europium conjugate and time resolved fluorescence (SpectraMax Gemini Fluorescence Microplate Reader).

In a further data set the target is DRB1*1101 (Homo sapiens, UniProt P01903+P01911, A100R/A169T/A87E/I96F/K41T/L162R/M171V/P40S/Q125H/Q178H/Q39Y/Q99D/R42S/S66Y/T262R/V115G/W38E). Briefly: MHC II competition binding assay. The protocol:
as §1

For the next data set, the target named is DRB1*0801 (Homo sapiens, UniProt P01903+P01911, A100R/A103L/A169T/D86S/F76Y/H45Y/I96F/K41T/L162R/M171V/P40S/Q125H/Q178H/Q39Y/Q99D/R218S/R42G/S66Y/V115G/W38E). Briefly: MHC II competition binding assay. The protocol:
as §1

For another data set, the target named is DRB1*1301 (Homo sapiens, UniProt P01903+P01911, A100E/A169T/K41T/L162R/M171V/P40S/Q125H/Q178H/Q39Y/Q99D/R42S/S66N/T262R/W38E/Y61H). Briefly: MHC II competition binding assay. The protocol:
as §1

The next data set concerns the target T2, DRB1*0301 (Homo sapiens, UniProt P01903+P01911, A100K/A102G/A103R/A169T/F55Y/I96L/K41T/L162R/M171V/P40S/Q125H/Q178H/Q39Y/R42S/S66N/T106N/T262R/W38E/Y61H).
T2 construct: purchased Benaroya Research Institute (Seattle, Wash.)
Briefly: MHC II competition binding assay. The protocol:
as §1

The target of the next data set is DRB1*0701 (Homo sapiens, UniProt P01903+P01911, A100R/A102G/A103Q/D57E/D86V/E43K/F76Y/K127E/L162R/M171V/P40G/Q125H/Q99D/R33Q/R42Y/R54Q/S133A/S66F/T210M/V115G/Y107V/Y59L/Y89S). Briefly: MHC II competition binding assay. The protocol: as §1
A further data set has as its target T3, DRB1*0401 (Homo sapiens, UniProt P01903+P01911, A100K/A169T/F76Y/I96L/K127E/L162R/M171V/N62H/P40V/Q125Y/R42H/S133A/S149N/S66Y/V115G/V209L/W38E).
T3 construct: purchased Benaroya Research Institute (Seattle, Wash.)
Briefly: MHC II competition binding assay. As for the experimental part: as §1

The target of the next data set is T4, DRB1*1501 (Homo sapiens, UniProt P01903+P01911).
T4 construct: purchased Benaroya Research Institute (Seattle, Wash.)
The data set can be described thus: MHC II competition binding assay. As for the experimental part:
as §1, with “MHC II competition binding assays were performed using a 384-well high throughput assay as previously described (Salvat, et al. (2014) supra). Binding assays were performed for the eight alleles: DRB1*0101, 0301, 0401, 0701, 0801, 1101, 1301, and 1501.” left out

For the next data set, the system named is S. aureus cells. Briefly: Lytic assay using purified protein (SYTOX kinetic assay). It counts as cell-based, Staphylococcus aureus. The settings on record: 200 ng purified enzyme. As for the experimental part:
S. aureus cells were grown either to mid-log or to saturation in tryptic soy broth (TSB) at 37° C. with shaking. The cells were harvested by centrifugation and washed once in phosphate buffered saline (PBS: 2.7 mM KCl, 1.5 mM KH2PO4, 8.9 mM Na2HPO4, 136.9 mM NaCl, pH 7.4). The assay was performed in 96-well, black, clear bottom plates from Greiner Bio-One (Monroe, N.C.). The final (250 μl) reaction was composed of 10 μl of P. pastoris culture supernatant, S. aureus cells at OD600=1.5, and 5 μM SYTOX Green (Thermo Fisher Scientific; Waltham, Mass.), all in PBS. Data were collected using SPECTRAMAX GEMINI Fluorescence Microplate Reader (Molecular Devices; Sunnyvale, Calif.) using an excitation/emission of 504/523 nm, and rates were determined from the slope of the steepest linear portion of the trace. Each assay was performed with 500 ng of commercially-sourced lysostaphin (ssLys) as an internal control.
The activity of purified lysostaphin variants was examined using the SYTOX kinetic assay as previously described in Chapter 2, Section 3.2.6. 200 ng of purified enzyme (instead of culture supernatant) was used in each reaction.

Data set [1] in a line: Thermostability by differential scanning fluorimetry. The settings on record: SYPRO Orange, PBS. It counts as physicochemical. As for the experimental part:
The relative thermostability of the lysostaphin variants was determined by differential scanning fluorimetry, as previously described (Niesen, et al. (2007) Nat. Protocols 2:2212-2221). Proteins and SYPRO Orange were diluted in PBS (final concentrations of 100 μg/ml and 5× in 20 μl reaction volume, respectively), and fluorescence was quantified at 1-degree increments from 25 to 94° C. using an Applied Biosystems ABI 7500 fast real-time PCR system. The reactions were performed using PCR Plates for Fast Thermocyclers (VWR; Radnor, Pa.). Fluorescence was quantified using the preset TAMRA parameters. Melting temperatures were determined by data analysis with the ‘DSF Analysis v3.0.xlsx’ EXCEL sheet and GraphPad Prism v.6.02 software.
For orientation: DSF heats the sample and reads unfolding from a dye or from intrinsic fluorescence.

In a further data set the test system is S. aureus SA113. Briefly: MIC assay. The data set is classed as cell-based, Staphylococcus aureus. The settings on record: S. aureus SA113, purified enzyme. As for the experimental part: The MICs of wild-type lysostaphin and its variants were determined by adding 2-fold serial dilutions of enzymes into wells of a polypropylene 96-well plate (Costar 3879) containing ˜40,000 S. aureus SA113 (or S. aureus 6445, 3425-1, 3425-3) cells in Muller Hinton broth (BD) supplemented with 2% NaCl and 0.1% bovine serum albumin, yielding a total volume of 100 μl. Plates were grown overnight at 37° C. with shaking at 900 rpm on an Orbit P4 orbital shaker (Labnet; Edison, N.J.). […] The assay was performed in triplicate for each enzyme.

HLHFQTMVNSFSNPTAQ [Peptide R118T]: the IC50 on DRB1*0101 is below 0.01 µM; on DRB1*1101, below 0.01 µM; at DRB1*0801, 57.7 µM; on DRB1*1301, above 250 µM; on DRB1*0301 it was 68.4 µM; on DRB1*0701, 23.1 µM. The IC50 at DRB1*0401 and at DRB1*1501 was below 0.01 µM throughout.

Regarding “Flex 14: lysostaphin variant I41E, S122D; two mutation design shared between rigid and flexible designs”, the “% Wild-Type Activity” value in the data set with S. aureus cells worked out at 69%. Moreover, in data set [1], the Tm was determined as 58.6 °C. This molecule also gave an MIC against S. aureus SA113 of 0.0833 µg/mL.

HLHFQRMVNDFSNPTAQ [Peptide S122D]: the IC50 at DRB1*0101 was below 0.01 µM; on DRB1*1101 it was below 0.01 µM; at DRB1*0801 it was 150 µM; on DRB1*1301 it was above 250 µM; on DRB1*0301, 9.42 µM; on DRB1*0701, above 250 µM. Moreover, the IC50 at DRB1*0401 and at DRB1*1501 was below 0.01 µM each time.

For HLHFQTMVNDFGNPTAQ [Peptide 182224], the IC50 at DRB1*0101 is 7.43 µM; on DRB1*1101, 14.1 µM; on DRB1*0801 it was above 250 µM; on DRB1*1301, above 250 µM; on DRB1*0301, 133 µM; at DRB1*0701, above 250 µM. Also, the IC50 came to 7.52 µM on DRB1*0401 and 0.42 µM at DRB1*1501.

Take HLHFQRMVGDFGNPTAQ [Peptide 212224]: the IC50 at DRB1*0101 is 0.18 µM; on DRB1*1101, 13.4 µM; at DRB1*0801, above 250 µM; on DRB1*1301 it was above 250 µM; at DRB1*0301, 116 µM; on DRB1*0701 it was above 250 µM. The results for the IC50 on DRB1*0401 and on DRB1*1501 were 5.55 µM and 24.2 µM, respectively.

As to HLHFQRMVGSFSNPTAQ [Peptide N121G], the IC50 on DRB1*0101 (DRB1*0101, read-out: IC50) was below 0.01 µM; on DRB1*1101 (DRB1*1101, read-out: IC50) it was 6.41 µM; on DRB1*0801 (DRB1*0801, read-out: IC50), above 250 µM; at DRB1*1301 (DRB1*1301, read-out: IC50), above 250 µM; at DRB1*0301 (DRB1*0301, read-out: IC50) it was above 250 µM; at DRB1*0701 (DRB1*0701, read-out: IC50) it was 17.4 µM. Moreover, the IC50 at DRB1*0401 (DRB1*0401, read-out: IC50) is 6.13 µM; on DRB1*1501, below 0.01 µM.

B1: Flex 8: lysostaphin variant N12G, I41E, L83M, I99Q, N121G, S122D (protein, UniProt P10547 248-493, looked up, variant N12G I41E L83M I99Q N121G S122D)
Lysostaphin: AATHEHSAQWLGNYKKGYGYGPYPLGINGGMHYGVDFFMNEGTPVKAISSGKIVEAGWSNYGGGNQIGLIENDGVHRQWYMHMSKYNVKVGDYVKAGQQIGWSGSTGYSTAPHLHFQRMVGDFSNSTAQDPMPFLKSAGYGKAGGTVTPTPNTGWKTNKYGTLYKSESASFTPNTDIITRTTGPFRSMPQSGVLKAGQTIHYDEVMKQDGHVWVGYTGNSGQRIYLPVRTWNKSTNTLGVLWGTIK
Take B1: in the data set on S. aureus cells, the “% Wild-Type Activity” value stood at 60%. In addition, the Tm in [1] is 52.9 °C. In addition, the MIC in the data set with S. aureus SA113 worked out at 0.2083 µg/mL.

B2: Flex 10: lysostaphin variant N12G, I41E, N121G, S122D (protein, UniProt P10547 248-493, looked up, variant N12G I41E N121G S122D)
Lysostaphin: AATHEHSAQWLGNYKKGYGYGPYPLGINGGMHYGVDFFMNEGTPVKAISSGKIVEAGWSNYGGGNQIGLIENDGVHRQWYMHLSKYNVKVGDYVKAGQIIGWSGSTGYSTAPHLHFQRMVGDFSNSTAQDPMPFLKSAGYGKAGGTVTPTPNTGWKTNKYGTLYKSESASFTPNTDIITRTTGPFRSMPQSGVLKAGQTIHYDEVMKQDGHVWVGYTGNSGQRIYLPVRTWNKSTNTLGVLWGTIK
Consider B2, for which, in the data set on S. aureus cells, the “% Wild-Type Activity” value came to 62%. In data set [1], the Tm came out at 57.5 °C. The molecule further gave an MIC in the data set with S. aureus SA113 of 0.0729 µg/mL.

B3: Flex 6: lysostaphin variant N12G, I41E, I99Q, N121G, S122D (protein, UniProt P10547 248-493, looked up, variant N12G I41E I99Q N121G S122D)
Lysostaphin: AATHEHSAQWLGNYKKGYGYGPYPLGINGGMHYGVDFFMNEGTPVKAISSGKIVEAGWSNYGGGNQIGLIENDGVHRQWYMHLSKYNVKVGDYVKAGQQIGWSGSTGYSTAPHLHFQRMVGDFSNSTAQDPMPFLKSAGYGKAGGTVTPTPNTGWKTNKYGTLYKSESASFTPNTDIITRTTGPFRSMPQSGVLKAGQTIHYDEVMKQDGHVWVGYTGNSGQRIYLPVRTWNKSTNTLGVLWGTIK
For the molecule B3, the “% Wild-Type Activity” value in the data set with S. aureus cells came to 58%. The Tm in [1] worked out at 54.1 °C. The molecule also came in with an MIC with S. aureus SA113 of 0.2083 µg/mL.

B4: Flex 1: lysostaphin variant I41E, I99Q, S122D (SEQ ID NO:32) (protein)
chain: AATHEHSAQWLNNYKKGYGYGPYPLGINGGMHYGVDFFMNEGTPVHAISSGKIVEAGWSNYGGGNQIGLIENDGVHRQWYMHLSKYNVKVGDYVKAGQIIGWSGSTGYSTAPHLHFQTMVNDFGNPTAQDPMPFLKSAGYGKAGGTVTPTPNTGWKTNKYGTLYKSESASFTPNTDIITRTTGPFRSMPQSGVLKAGQTIHYDEVMKQDGHVWVGYTGNSGQRIYLPVRTWNKSTNTLGVLWGTIK
As for B4, the “% Wild-Type Activity” value in the data set with S. aureus cells was found to be 63%. Moreover, the Tm in [1] came out at 55.4 °C. The molecule also showed an MIC against S. aureus SA113 of 0.0833 µg/mL.
